Source: PubChem BioAssay (NCI)
Values joined by “and” are separate entries in the source; they are usually repeats but may differ in a detail not shown here. Equal entries are not always repeated.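 96-well plates; 48 h exposure; 5 concentrations. Endpoints by linear interpolation between flanking doses. Not reached: highest tested concentration assigned. Abbreviation: GI50, concentration required for 50% inhibition of growth. TGI is the concentration that stops growth completely.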

Key:
Assay in all cases: NCI tumour cell line growth inhibition, 48 h
[1] = tested on: MOLT-4 leukemia
[2] = tested on: SNB-75 CNS
[3] = tested on: KM12 colon
[4] = tested on: MDA-MB-231 breast
[5] = tested on: COLO 205 colon
[6] = tested on: SK-MEL-2 melanoma
[7] = tested on: OVCAR-4 ovarian
[8] = tested on: A498 renal

Compound | GI50 [1] | TGI [1] | GI50 [2] | TGI [2] | GI50 [3] | TGI [3] | GI50 [4] | TGI [4] | GI50 [5] | TGI [5] | GI50 [6] | TGI [6] | GI50 [7] | TGI [7] | GI50 [8] | TGI [8]
CN(C)c1ccc(/C=C(\C#N)c2ccccc2)cc1 | 0.372 µM and 0.439 µM and 0.545 µM | > 100 µM | 0.361 µM and 0.626 µM and 0.299 µM | > 100 µM | 0.307 µM and 0.425 µM and 0.437 µM | 21.8 µM and > 100 µM | 1.66 µM and 1.97 µM | 78.4 µM and 76.7 µM | 0.384 µM and 0.42 µM and 0.353 µM | 2.32 µM and 5.35 µM and 2.76 µM | 0.453 µM and 0.465 µM | > 100 µM | 3.18 µM and 2.42 µM and 1.75 µM | > 100 µM | 0.633 µM and 0.281 µM and 0.316 µM | –
Cc1cncc(-c2nc(NCCc3c[nH]c4ccccc34)c3ncn(C(C)C)c3n2)c1 | – | – | 4.87 µM | 21.1 µM | 3.36 µM | 12.8 µM | 4.3 µM | 17.6 µM | 2.9 µM | 7.26 µM | 2.83 µM | 9.8 µM | 3.93 µM | 39.6 µM | 3.4 µM | 16.9 µM
C=C1C(=O)O[C@@H]2C[C@@H]1CC[C@]1(C)O[C@H]1CC/C(C)=C/CC[C@@]2(C)O | 11.7 µM | 28.1 µM | – | – | 16.2 µM | 34.3 µM | 21.4 µM | 48.8 µM | 18.1 µM | 34.8 µM | 64.4 µM | > 100 µM | – | – | 23.3 µM | 74.5 µM
CCCCOC(=O)/C=C\C(=O)NC(N)=O | 38.3 µM | > 100 µM | 18 µM | 74.9 µM | 25 µM | 66.9 µM | 17.9 µM | 42.6 µM | 14 µM | 29.1 µM | – | – | 17.1 µM | 43.8 µM | 29.3 µM | 78.1 µM
O=C1CC(C(=O)O)Cc2c(Br)ccc(O)c21 (stereo unspecified) | – | > 100 µM | – | – | – | > 100 µM | – | > 100 µM | – | > 100 µM | – | > 100 µM | – | > 100 µM | – | –
COc1ccc(/C(=C/c2ccc3ccccc3c2)c2nn[nH]n2)cc1OC | 4.16 µM | > 100 µM | 2.51 µM | > 100 µM | 2.79 µM | > 100 µM | 12.5 µM | > 100 µM | 2.27 µM | 6.56 µM | 4.36 µM | > 100 µM | 7.78 µM | > 100 µM | – | –
CS(=O)(=O)O[C@H]1C(=O)N(c2cc3c4ccccc4ccc3c3ccccc23)[C@@H]1c1ccccn1 | 2.22 µM | > 100 µM | 0.248 µM | > 100 µM | 0.473 µM | > 100 µM | 1.07 µM | 14 µM | 0.398 µM | 1.95 µM | 0.687 µM | > 100 µM | 1.62 µM | > 100 µM | – | –
COC1=CC(c2ccc[nH]2)=N/C1=C\c1[nH]c(C)c(C(=O)Oc2ccccc2)c1C | – | – | 0.274 µM | – | 0.118 µM | 1.69 µM | 0.0795 µM | 0.457 µM | 0.345 µM | 1.43 µM | 0.194 µM | 0.479 µM | 0.236 µM | – | 0.648 µM | 2.56 µM
CCOC(=O)C1=C(C)NC(C)=C(C(=O)OCCNC(=O)c2ccc(N=[N+]=[N-])cc2)C1c1ccccc1C(F)(F)F (stereo unspecified) | – | 13.5 µM | – | – | – | 21.5 µM | – | 21.5 µM | – | 11 µM | – | – | – | 21.5 µM | – | –
COc1cccc(CCNC(=O)CC(c2ccccc2)(c2ccccc2)c2ccccc2)c1 | 6.01 µM | > 100 µM | > 100 µM | > 100 µM | 4.75 µM | > 100 µM | > 100 µM | > 100 µM | 12.8 µM | > 100 µM | 4.41 µM | > 100 µM | > 100 µM | > 100 µM | – | –
C/C=C(\C)c1cc(=O)c2c(C)cc3c(c2o1)C(OC)(OC(C)=O)c1c(O)c(C2CC(C)(N(C)C)C(OC(C)=O)C(C)O2)cc(C2CC(N(C)C)C(OC(C)=O)C(C)O2)c1C3=O (stereo unspecified) | – | 10.3 µM | – | 6.44 µM | – | 8.24 µM | – | 1.49 µM | – | – | – | – | – | – | – | 3.49 µM
O=C1Nc2ccc(O)cc2/C1=C\c1ccncc1 | – | – | – | – | 16.9 µM | 46.4 µM | 14.6 µM | 39.4 µM | 26.3 µM | 64.8 µM | 14.5 µM | 43.1 µM | – | – | 30.5 µM | 49.9 µM
COC(=O)[C@H](Cc1ccccc1)NNC(=O)c1csc([C@@H](C[C@H](C(C)C)N(C)C(=O)[C@@H](NC(=O)[C@H]2CCCCN2C)C2CC2)OC(C)=O)n1 | – | 25 µM and > 100 µM | – | – | – | 25 µM and > 100 µM | – | – | – | – | 0.035 µM and 0.0932 µM | > 100 µM | – | 25 µM and > 100 µM | – | –
COc1ccc(NC(=S)C#N)cc1 | – | – | – | > 100 µM | – | > 100 µM | – | > 100 µM | – | > 100 µM | – | > 100 µM | – | – | – | > 100 µM
